Data on one substance can be found in patent US11419902B2, “Compositions comprising bacterial strains” (4D Pharma Research Limited, priority 2018, dated 2022).

Assay [1] has as its system TLR-4, CD11b. Briefly: Gene expression of inflammatory markers in brain tissue (qPCR). It is filed as in vivo, BALBc mice. As to conditions: oral gavage 1×10^9 CFU for 6 consecutive days. As to the method: BALBc (Envigo, UK) adult male mice were group housed under a 12 h light-dark cycle; standard rodent chow and water were available ad libitum. All experiments were performed in accordance with European guidelines following approval by University College Cork Animal Ethics Experimentation Committee. Animals were 8 weeks old at the start of the experiment.
Animals were allowed to habituate to their holding room for one week after arrival into the animal unit. They receive oral gavage (200 μL dose) of live biotherapeutics at a dose of 1×10^9 CFU for 6 consecutive days between 15:00 and 17:00. On day 7, the animals are decapitated, and tissues are harvested for experimentation. […]
Total RNA was extracted using the mirVana™ miRNA Isolation kit (Ambion/Llife technologies, Paisley, UK) and DNase treated (Turbo DNA-free, Ambion/life technologies) according to the manufacturers recommendations. RNA was quantified using NanoDrop™ spectrophotometer (Thermo Fisher Scientific Inc., Wilmington, Del., USA) according to the manufacturer's instructions. RNA quality was assessed using the Agilent Bioanalyzer (Agilent, Stockport, UK) according to the manufacturer's procedure and an RNA integrity number (RIN) was calculated. […] Quantitative PCR was carried out using probes (6 carboxy fluorescein—FAM) designed by Applied Biosystems to mouse specific targeted genes, while using β-actin as an endogenous control. […]
For orientation: Real-time PCR tracks product formation cycle by cycle.

Assay [2] relates to splenocytes. The assay can be described thus: Spleen cytokine assay (ex-vivo splenocyte assay). The assay is classed as in vivo, mouse. As to conditions: mice administered MRx0029. As to the method: Animals were allowed to habituate to their holding room for one week after arrival into the animal unit. They receive oral gavage (200 μL dose) of live biotherapeutics at a dose of 1×10^9 CFU for 6 consecutive days between 15:00 and 17:00. On day 7, the animals are decapitated, and tissues are harvested for experimentation.
Spleens were collected immediately in 5 mL RPMI media following sacrifice and cultured immediately. Spleen cells were first homogenised in this RPMI media, followed by 5 mins incubation with 1 ml of RBC lysis buffer (11814389001 ROCHE, Sigma). A further 10 ml of RPMI media was added, followed by 200G centrifugation for 5 mins. The supernatant was then filtered through 40 um strainer. Cells were counted and seeded (4,000,000/mL media). After 2.5 h of adaptation, cells were stimulated with lipopolysaccharide (LPS-2 μg/ml) or concanavalin A (ConA-2.5 μg/ml) for 24 h. Following stimulation, the supernatants were harvested to assess the cytokine release using Proinflammatory Panel 1 (mouse) V-PLEX Kit (Meso Scale Discovery, Maryland, USA) for TNF-α, IL-10, IL-1β, Interferon γ, CXCL2 and IL6. The analyses were performed using MESO QuickPlex SQ 120, SECTOR Imager 2400, SECTOR Imager 6000, SECTOR S 600.
The ex-vivo splenocyte assay involves challenging the splenocytes (cells isolated from the spleen—a main organ involved in immune defence), with a bacterio- or viral-mimetic challenge.

The subject of assay [3] is HDAC. Briefly: HDAC inhibition on HT-29 cell lysate. The assay is classed as biochemical. As to the method: Pure cultures of bacteria were grown anaerobically in YCFA+ broth until they reached their stationary growth phase. Cultures were centrifuged at 5,000×g for 5 minutes and the cell-free supernatant (CFS) was filtered using a […] (Millipore, UK). 1 mL aliquots of the CFS were stored at −80° C. until use. Sodium butyrate, hexanoic and valeric acid were obtained from Sigma Aldrich (UK) and suspensions were prepared in YCFA+ broth.
To investigate which metabolites were responsible for the strain-induced HDAC inhibition, different concentrations of hexanoic acid, valeric acid and sodium butyrate were measured for their HDAC inhibition on whole HT-29 cells and on HT-29 cell lysate.

As to Megasphaera massiliensis MRx0029, in assay [1], the “expression of CD11b in the amygdala” value is “increased expression of CD11b” and the “expression of TLR-4 in the amygdala” value was “significantly increased the expression of TLR-4”. Further, in assay [2] (following a challenge with LPS), the “interferon-γ production from splenocytes” value is “reduction”, the “interleukin-1β production from splenocytes” value was “reduction” and the “interleukin-6 production from splenocytes” value was “reduction”. Moreover, the “levels of the chemoattractant CXCL1 from splenocytes” value in assay [2] is “increase in the levels of the chemoattractant CXCL1”. Further, the “HDAC inhibition on HT-29 cell lysate” value in assay [3] is given as “strong HDAC inhibition”.
